Patent US11345712B2, “Protein-targeting compounds and pharmaceutical compositions thereof, and their therapeutic applications” (BioTheryX, Inc., priority 2019, dated 2022)

The compounds below were run on MOLM-13 cells (assay: MOLM-13 cell viability assay (CellTiter-Glo)). Conditions: Homo sapiens, MOLM-13, 72 h, 3 days, concentration of 1 μM, read-out: Antiproliferative Activity (inhibition, MOLM-13 cell viability).
Assay type: cell-based
Outline: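 MOLM-13 AML cells in RPMI 1640 with 10% FBS, seeded at 2,500 cells/well and exposed to compound or DMSO for 3 days at 37° C, 5% CO2. Viability read as CellTiter-Glo luminescence after 10 min shaking.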

SMILES	cytotoxicity at 1 µM
CC(C)c1cc(NC(=O)NCc2cc3c(s2)C(=O)N(C2CCC(=O)NC2=O)C3)cc(N(C)C)c1 (stereo not shown) [II-60, 1-(3-(dimethylamino)-5-isopropylphenyl)-3-((5-(2,6-dioxopiperidin-3-yl)-6-oxo-5,6-dihydro-4H-thieno[2,3-c]pyrrol-2-yl)methyl)urea]	> 80%
CN(C)c1ccc(CC(=O)NCc2scc3c2CN(C2CCC(=O)NC2=O)C3=O)cc1 (stereo not shown) [II-61, 2-(4-(dimethylamino)phenyl)-N-((5-(2,6-dioxopiperidin-3-yl)-4-oxo-5,6-dihydro-4H-thieno[3,4-c]pyrrol-1-yl)methyl)acetamide]	< 25%
CC(C)(C)c1ccc(CC(=O)NCc2scc3c2CN(C2CCC(=O)NC2=O)C3=O)cc1 (stereo not shown) [II-62, 2-(4-(tert-butyl)phenyl)-N-((5-(2,6-dioxopiperidin-3-yl)-4-oxo-5,6-dihydro-4H-thieno[3,4-c]pyrrol-1-yl)methyl)acetamide]	25 to 50%
COc1ccc(CC(=O)NCc2scc3c2CN(C2CCC(=O)NC2=O)C3=O)cc1C(C)C (stereo not shown) [II-63, N-((5-(2,6-dioxopiperidin-3-yl)-4-oxo-5,6-dihydro-4H-thieno[3,4-c]pyrrol-1-yl)methyl)-2-(3-isopropyl-4-methoxyphenyl)acetamide]	> 80%
Cc1ccc(NCCCCCNCc2scc3c2CN(C2CCC(=O)NC2=O)C3=O)cc1Cl (stereo not shown) [II-64, 3-(1-(((5-((3-chloro-4-methylphenyl)amino)pentyl)amino)methyl)-4-oxo-4H-thieno[3,4-c]pyrrol-5(6H)-yl)piperidine-2,6-dione]	< 25%
Cc1ccc(NCCCNCc2cc3c(s2)C(=O)N(C2CCC(=O)NC2=O)C3)cc1Cl (stereo not shown) [II-65, 3-(2-(((3-((3-chloro-4-methylphenyl)amino)propyl)amino)methyl)-6-oxo-4,6-dihydro-5H-thieno[2,3-c]pyrrol-5-yl)piperidine-2,6-dione]	< 25%
C=C(C(=O)NCc1scc2c1CN(C1CCC(=O)NC1=O)C2=O)c1ccc(C)c(Cl)c1 (stereo not shown) [II-67, 2-(3-chloro-4-methylphenyl)-N-((5-(2,6-dioxopiperidin-3-yl)-4-oxo-5,6-dihydro-4H-thieno[3,4-c]pyrrol-1-yl)methyl)propenamide]	< 25%
Cc1ccc(CC(=O)NCc2scc3c2CN(C2CCC(=O)NC2=O)C3=O)cc1N(C)C (stereo not shown) [II-68, 2-(3-(dimethylamino)-4-methylphenyl)-N-((5-(2,6-dioxopiperidin-3-yl)-4-oxo-5,6-dihydro-4H-thieno[3,4-c]pyrrol-1-yl)methyl)acetamide]	25 to 50%
Cc1ccc(CS(=O)(=O)NCc2scc3c2CN(C2CCC(=O)NC2=O)C3=O)cc1Cl (stereo not shown) [II-69, 1-(3-chloro-4-methylphenyl)-N-((5-(2,6-dioxopiperidin-3-yl)-4-oxo-5,6-dihydro-4H-thieno[3,4-c]pyrrol-1-yl)methyl)methanesulfonamide]	50 to 80%
CC(C)c1cccc(NC(=O)NCc2cc3c(s2)C(=O)N(C2CCC(=O)NC2=O)C3)c1 (stereo not shown) [II-70, 1-((5-(2,6-dioxopiperidin-3-yl)-6-oxo-5,6-dihydro-4H-thieno[2,3-c]pyrrol-2-yl)methyl)-3-(3-isopropylphenyl)urea]	> 80%
CCN(CC)c1cccc(NC(=O)NCc2cc3c(s2)C(=O)N(C2CCC(=O)NC2=O)C3)c1 (stereo not shown) [II-71, 1-(3-(diethylamino)phenyl)-3-((5-(2,6-dioxopiperidin-3-yl)-6-oxo-5,6-dihydro-4H-thieno[2,3-c]pyrrol-2-yl)methyl)urea]	> 80%
Cc1ccc(NC(=O)NCc2cc3c(s2)C(=O)N(C2CC(=O)NC2=O)C3)cc1Cl (stereo not shown) [II-72, 1-(3-chloro-4-methylphenyl)-3-((5-(2,5-dioxopyrrolidin-3-yl)-6-oxo-5,6-dihydro-4H-thieno[2,3-c]pyrrol-2-yl)methyl)urea]	25 to 50%
Cc1ccc(NC(=O)NCc2cc3c(s2)C(=O)N(C2(C)CCC(=O)NC2=O)C3)cc1Cl (stereo not shown) [II-73, 1-(3-chloro-4-methylphenyl)-3-((5-(3-methyl-2,6-dioxopiperidin-3-yl)-6-oxo-5,6-dihydro-4H-thieno[2,3-c]pyrrol-2-yl)methyl)urea]	< 25%
CC(C)c1ccc(CC(=O)NCc2scc3c2CN(C2CCC(=O)NC2=O)C3=O)cc1 (stereo not shown) [II-74, N-((5-(2,6-dioxopiperidin-3-yl)-4-oxo-5,6-dihydro-4H-thieno[3,4-c]pyrrol-1-yl)methyl)-2-(4-isopropylphenyl)acetamide]	< 25%
CC1CCC(CC(=O)NCc2scc3c2CN(C2CCC(=O)NC2=O)C3=O)CC1 (stereo not shown) [II-75, N-((5-(2,6-dioxopiperidin-3-yl)-4-oxo-5,6-dihydro-4H-thieno[3,4-c]pyrrol-1-yl)methyl)-2-(4-methylcyclohexyl)acetamide]	< 25%
O=C(Cc1cccc(N2CCCCC2)c1)NCc1scc2c1CN(C1CCC(=O)NC1=O)C2=O (stereo not shown) [II-76, N-((5-(2,6-dioxopiperidin-3-yl)-4-oxo-5,6-dihydro-4H-thieno[3,4-c]pyrrol-1-yl)methyl)-2-(3-(piperidin-1-yl)phenyl)acetamide]	> 80%

SMILES	cytotoxicity at 1 µM
CN(C)CCOc1cccc(CC(=O)NCc2scc3c2CN(C2CCC(=O)NC2=O)C3=O)c1 (stereo not shown) [II-77, 2-(3-(2-(dimethylamino)ethoxy)phenyl)-N-((5-(2,6-dioxopiperidin-3-yl)-4-oxo-5,6-dihydro-4H-thieno[3,4-c]pyrrol-1-yl)methyl)acetamide]	< 25%
O=C(CN1CCOCC1)NCc1scc2c1CN(C1CCC(=O)NC1=O)C2=O (stereo not shown) [II-78, N-((5-(2,6-dioxopiperidin-3-yl)-4-oxo-5,6-dihydro-4H-thieno[3,4-c]pyrrol-1-yl)methyl)-2-morpholinoacetamide]	< 25%
Cc1ccc(CC(=O)NCc2cc3c(s2)CN(C2CCC(=O)NC2=O)C3=O)cc1Cl (stereo not shown) [II-79, 2-(3-chloro-4-methylphenyl)-N-((5-(2,6-dioxopiperidin-3-yl)-4-oxo-5,6-dihydro-4H-thieno[2,3-c]pyrrol-2-yl)methyl)acetamide]	< 25%
CN(C)CCOc1ccc(CC(=O)NCc2scc3c2CN(C2CCC(=O)NC2=O)C3=O)cc1 (stereo not shown) [II-80, 2-(4-(2-(dimethylamino)ethoxy)phenyl)-N-((5-(2,6-dioxopiperidin-3-yl)-4-oxo-5,6-dihydro-4H-thieno[3,4-c]pyrrol-1-yl)methyl)acetamide]	< 25%
Cc1ccc(NC(=O)NCc2cc3c(s2)C(=O)N(C2CCC(=O)N(COC(=O)[C@H](N)C(C)C)C2=O)C3)cc1N(C)C (stereo partly drawn) [II-81, (3-(2-((3-(3-(dimethylamino)-4-methylphenyl)ureido)methyl)-6-oxo-4,6-dihydro-5H-thieno[2,3-c]pyrrol-5-yl)-2,6-dioxopiperidin-1-yl)methyl D-valinate]	> 80%
Cc1ccc(NC(=O)NCc2cc3c(s2)C(=O)N(C2CCC(=O)N(COC(=O)[C@H](N)C(C)C)C2=O)C3)cc1Cl (stereo partly drawn) [II-82, (3-(2-((3-(3-chloro-4-methylphenyl)ureido)methyl)-6-oxo-4,6-dihydro-5H-thieno[2,3-c]pyrrol-5-yl)-2,6-dioxopiperidin-1-yl)methyl D-valinate]	> 80%
O=C(Cc1ccc(N2CCOCC2)cc1)NCc1scc2c1CN(C1CCC(=O)NC1=O)C2=O (stereo not shown) [II-83, N-((5-(2,6-dioxopiperidin-3-yl)-4-oxo-5,6-dihydro-4H-thieno[3,4-c]pyrrol-1-yl)methyl)-2-(4-morpholinophenyl)acetamide]	< 25%
CC(C)(C)c1ccc(CCCC(=O)NCc2scc3c2CN(C2CCC(=O)NC2=O)C3=O)cc1 (stereo not shown) [II-84, 4-(4-(tert-butyl)phenyl)-N-((5-(2,6-dioxopiperidin-3-yl)-4-oxo-5,6-dihydro-4H-thieno[3,4-c]pyrrol-1-yl)methyl)butanamide]	< 25%
CN(C)c1ccc(CCCC(=O)NCc2scc3c2CN(C2CCC(=O)NC2=O)C3=O)cc1 (stereo not shown) [II-85, 4-(4-(dimethylamino)phenyl)-N-((5-(2,6-dioxopiperidin-3-yl)-4-oxo-5,6-dihydro-4H-thieno[3,4-c]pyrrol-1-yl)methyl)butanamide]	< 25%
CC(CCc1ccc(C(C)(C)C)cc1)C(=O)NCc1scc2c1CN(C1CCC(=O)NC1=O)C2=O (stereo not shown) [II-86, 4-(4-(tert-butyl)phenyl)-N-((5-(2,6-dioxopiperidin-3-yl)-4-oxo-5,6-dihydro-4H-thieno[3,4-c]pyrrol-1-yl)methyl)-2-methylbutanamide]	< 25%
CCC(C(=O)NCc1scc2c1CN(C1CCC(=O)NC1=O)C2=O)c1ccc(C)c(Cl)c1 (stereo not shown) [II-87, 2-(3-chloro-4-methylphenyl)-N-((5-(2,6-dioxopiperidin-3-yl)-4-oxo-5,6-dihydro-4H-thieno[3,4-c]pyrrol-1-yl)methyl)butanamide]	< 25%
Cc1ccc(C(N)C(=O)NCc2scc3c2CN(C2CCC(=O)NC2=O)C3=O)cc1 (stereo not shown) [II-88, 2-amino-N-((5-(2,6-dioxopiperidin-3-yl)-4-oxo-5,6-dihydro-4H-thieno[3,4-c]pyrrol-1-yl)methyl)-2-(p-tolyl)acetamide]	< 25%
NC(C(=O)NCc1scc2c1CN(C1CCC(=O)NC1=O)C2=O)c1cccc(Cl)c1 (stereo not shown) [II-89, 2-amino-2-(3-chlorophenyl)-N-((5-(2,6-dioxopiperidin-3-yl)-4-oxo-5,6-dihydro-4H-thieno[3,4-c]pyrrol-1-yl)methyl)acetamide]	< 25%
Cc1ccc(NC(=O)NCc2cc3c(s2)C(=O)N([C@H]2CCC(=O)NC2=O)C3)cc1Cl [II-90, (S)-1-(3-chloro-4-methylphenyl)-3-((5-(2,6-dioxopiperidin-3-yl)-6-oxo-5,6-dihydro-4H-thieno[2,3-c]pyrrol-2-yl)methyl)urea]	> 80%
Cc1ccc(NC(=O)NCc2cc3c(s2)C(=O)N([C@@H]2CCC(=O)NC2=O)C3)cc1Cl [II-91, (R)-1-(3-chloro-4-methylphenyl)-3-((5-(2,6-dioxopiperidin-3-yl)-6-oxo-5,6-dihydro-4H-thieno[2,3-c]pyrrol-2-yl)methyl)urea]	> 80%
